In article PMC4917279 (Journal of Medicinal Chemistry, 2016):

Columns and labels:
Type in all cases: binding
Conditions in all cases: read-out: %Ctrl @ 1000 nM
FRK = target: T1, FRK (Homo sapiens, UniProt P42685); assay: KINOMEscan
T1 construct: purchased DiscoveRx KINOMEscan

[1] = target: T2, ABL1(H396P)-nonphosphorylated (Homo sapiens, UniProt P00519, H396P); assay: KINOMEscan
T2 construct: purchased DiscoveRx (KINOMEscan service)

PIK3CA(H1047Y) = target: T3, PIK3CA(H1047Y) (Homo sapiens, UniProt P42336, H1047Y); assay: KINOMEscan
T3 construct: purchased DiscoveRx KINOMEscan

PRKCI = target: T4, PRKCI (Homo sapiens, UniProt P41743); assay: KINOMEscan
T4 construct: purchased DiscoveRx KINOMEscan

RIOK3 = target: T5, RIOK3 (Homo sapiens, UniProt O14730); assay: KINOMEscan
T5 construct: purchased DiscoveRx KINOMEscan

[2] = target: T6, ABL1(T315I)-nonphosphorylated (Homo sapiens, UniProt P00519, T315I); assay: KINOMEscan
T6 construct: purchased DiscoveRx (KINOMEscan service)

[3] = target: T7, EGFR(L747-E749del, A750P) (Homo sapiens, UniProt P00533, A750P/DEL747-749); assay: KINOMEscan
T7 construct: purchased DiscoveRx KINOMEscan

NIM1 = target: T8, NIM1 (Homo sapiens, UniProt Q8IY84); assay: KINOMEscan
T8 construct: purchased DiscoveRx KINOMEscan

SRPK3 = target: T9, SRPK3 (Homo sapiens, UniProt Q9UPE1); assay: KINOMEscan
T9 construct: purchased DiscoveRx KINOMEscan

PRKCD = target: T10, PRKCD (Homo sapiens, UniProt Q05655); assay: KINOMEscan
T10 construct: purchased DiscoveRx KINOMEscan

JNK3 = target: T11, JNK3 (Homo sapiens, UniProt P53779); assay: KINOMEscan
T11 construct: purchased DiscoveRx KINOMEscan

PFCDPK1(P.falciparum) = target: T12, PFCDPK1(P.falciparum) (Plasmodium falciparum, UniProt P62344); assay: KINOMEscan
T12 construct: purchased DiscoveRx KINOMEscan

EIF2AK1 = target: T13, EIF2AK1 (Homo sapiens, UniProt Q9BQI3); assay: KINOMEscan
T13 construct: purchased DiscoveRx KINOMEscan

EPHA2 = target: T14, EPHA2 (Homo sapiens, UniProt P29317); assay: KINOMEscan
T14 construct: purchased DiscoveRx KINOMEscan

PFTK1 = target: T15, PFTK1 (Homo sapiens, UniProt O94921); assay: KINOMEscan
T15 construct: purchased DiscoveRx KINOMEscan

RIPK1 = target: T16, RIPK1 (Homo sapiens, UniProt Q13546); assay: KINOMEscan
T16 construct: purchased DiscoveRx KINOMEscan

ERN1 = target: T17, ERN1 (Homo sapiens, UniProt O75460); assay: KINOMEscan
T17 construct: purchased DiscoveRx KINOMEscan

PKNB(M.tuberculosis) = target: T18, PKNB(M.tuberculosis) (Mycobacterium tuberculosis, UniProt P9WI81); assay: biochemical
T18 construct: purchased DiscoveRx KINOMEscan

EPHA5 = target: T19, EPHA5 (Homo sapiens, UniProt P54756); assay: KINOMEscan
T19 construct: purchased DiscoveRx KINOMEscan

RET = target: T20, RET (Homo sapiens, UniProt P07949); assay: KINOMEscan
T20 construct: purchased DiscoveRx KINOMEscan

TSSK1B = target: T21, TSSK1B (Homo sapiens, UniProt Q9BXA7); assay: KINOMEscan
T21 construct: purchased DiscoveRx KINOMEscan

STK39 = target: T22, STK39 (Homo sapiens, UniProt Q9UEW8); assay: KINOMEscan
T22 construct: purchased DiscoveRx KINOMEscan

PIK3CB = target: T23, PIK3CB (Homo sapiens, UniProt P42338); assay: KINOMEscan
T23 construct: purchased DiscoveRx KINOMEscan

PIK3CA(E545A) = target: T24, PIK3CA(E545A) (Homo sapiens, UniProt P42336, E545A); assay: KINOMEscan
T24 construct: purchased DiscoveRx KINOMEscan

NEK11 = target: T25, NEK11 (Homo sapiens, UniProt Q8NG66); assay: KINOMEscan
T25 construct: purchased DiscoveRx KINOMEscan

EPHA1 = target: T26, EPHA1 (Homo sapiens, UniProt P21709); assay: KINOMEscan
T26 construct: purchased DiscoveRx KINOMEscan

CSF1R-autoinhibited = target: T27, CSF1R-autoinhibited (Homo sapiens, UniProt P07333); assay: KINOMEscan
T27 construct: purchased DiscoveRx KINOMEscan

MARK1 = target: T28, MARK1 (Homo sapiens, UniProt Q9P0L2); assay: KINOMEscan
T28 construct: purchased DiscoveRx KINOMEscan

ULK2 = target: T29, ULK2 (Homo sapiens, UniProt Q8IYT8); assay: KINOMEscan
T29 construct: purchased DiscoveRx KINOMEscan

NEK1 = target: T30, NEK1 (Homo sapiens, UniProt Q96PY6); assay: KINOMEscan
T30 construct: purchased DiscoveRx KINOMEscan

[4] = target: T31, ABL1(T315I)-phosphorylated (Homo sapiens, UniProt P00519, T315I); assay: KINOMEscan
T31 construct: purchased DiscoveRx

TAOK3 = target: T32, TAOK3 (Homo sapiens, UniProt Q9H2K8); assay: KINOMEscan
T32 construct: purchased DiscoveRx KINOMEscan

SGK3 = target: T33, SGK3 (Homo sapiens, UniProt Q96BR1); assay: KINOMEscan
T33 construct: purchased DiscoveRx KINOMEscan

TYRO3 = target: T34, TYRO3 (Homo sapiens, UniProt Q06418); assay: KINOMEscan
T34 construct: purchased DiscoveRx KINOMEscan

TRPM6 = target: T35, TRPM6 (Homo sapiens, UniProt Q9BX84); assay: KINOMEscan
T35 construct: purchased DiscoveRx KINOMEscan

ALK = target: T36, ALK (Homo sapiens, UniProt Q9UM73); assay: KINOMEscan
T36 construct: purchased DiscoveRx KINOMEscan

p38-gamma = target: T37, p38-gamma (Homo sapiens, UniProt P53778); assay: KINOMEscan
T37 construct: purchased DiscoveRx KINOMEscan

GRK1 = target: T38, GRK1 (Homo sapiens, UniProt Q15835); assay: KINOMEscan
T38 construct: purchased DiscoveRx KINOMEscan

CTK = target: T39, CTK (Homo sapiens, UniProt P42679); assay: KINOMEscan
T39 construct: purchased DiscoveRx KINOMEscan

CDKL1 = target: T40, CDKL1 (Homo sapiens, UniProt Q00532); assay: KINOMEscan
T40 construct: purchased DiscoveRx KINOMEscan

[5] = target: T41, ABL1(M351T)-phosphorylated (Homo sapiens, UniProt P00519, M351T); assay: KINOMEscan
T41 construct: purchased DiscoveRx (KINOMEscan service)

TRKC = target: T42, TRKC (Homo sapiens, UniProt Q16288); assay: KINOMEscan
T42 construct: purchased DiscoveRx KINOMEscan

CSNK1A1L = target: T43, CSNK1A1L (Homo sapiens, UniProt Q8N752); assay: KINOMEscan
T43 construct: purchased DiscoveRx KINOMEscan

T33 sequence (Q96BR1 whole entry): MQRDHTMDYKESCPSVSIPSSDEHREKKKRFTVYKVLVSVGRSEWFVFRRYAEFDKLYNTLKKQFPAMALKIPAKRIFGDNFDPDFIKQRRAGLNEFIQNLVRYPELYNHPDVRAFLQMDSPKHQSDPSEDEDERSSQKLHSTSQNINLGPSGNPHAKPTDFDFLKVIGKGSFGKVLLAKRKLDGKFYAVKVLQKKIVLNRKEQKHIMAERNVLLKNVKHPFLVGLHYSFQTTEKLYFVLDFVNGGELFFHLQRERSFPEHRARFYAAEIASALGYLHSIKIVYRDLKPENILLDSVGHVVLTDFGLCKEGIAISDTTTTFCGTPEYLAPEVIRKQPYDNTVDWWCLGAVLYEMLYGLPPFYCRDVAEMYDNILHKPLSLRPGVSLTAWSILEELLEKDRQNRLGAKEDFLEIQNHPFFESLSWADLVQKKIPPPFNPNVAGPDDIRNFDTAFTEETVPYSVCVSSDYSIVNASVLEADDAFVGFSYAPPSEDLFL
T36 sequence (Q9UM73 19-1620): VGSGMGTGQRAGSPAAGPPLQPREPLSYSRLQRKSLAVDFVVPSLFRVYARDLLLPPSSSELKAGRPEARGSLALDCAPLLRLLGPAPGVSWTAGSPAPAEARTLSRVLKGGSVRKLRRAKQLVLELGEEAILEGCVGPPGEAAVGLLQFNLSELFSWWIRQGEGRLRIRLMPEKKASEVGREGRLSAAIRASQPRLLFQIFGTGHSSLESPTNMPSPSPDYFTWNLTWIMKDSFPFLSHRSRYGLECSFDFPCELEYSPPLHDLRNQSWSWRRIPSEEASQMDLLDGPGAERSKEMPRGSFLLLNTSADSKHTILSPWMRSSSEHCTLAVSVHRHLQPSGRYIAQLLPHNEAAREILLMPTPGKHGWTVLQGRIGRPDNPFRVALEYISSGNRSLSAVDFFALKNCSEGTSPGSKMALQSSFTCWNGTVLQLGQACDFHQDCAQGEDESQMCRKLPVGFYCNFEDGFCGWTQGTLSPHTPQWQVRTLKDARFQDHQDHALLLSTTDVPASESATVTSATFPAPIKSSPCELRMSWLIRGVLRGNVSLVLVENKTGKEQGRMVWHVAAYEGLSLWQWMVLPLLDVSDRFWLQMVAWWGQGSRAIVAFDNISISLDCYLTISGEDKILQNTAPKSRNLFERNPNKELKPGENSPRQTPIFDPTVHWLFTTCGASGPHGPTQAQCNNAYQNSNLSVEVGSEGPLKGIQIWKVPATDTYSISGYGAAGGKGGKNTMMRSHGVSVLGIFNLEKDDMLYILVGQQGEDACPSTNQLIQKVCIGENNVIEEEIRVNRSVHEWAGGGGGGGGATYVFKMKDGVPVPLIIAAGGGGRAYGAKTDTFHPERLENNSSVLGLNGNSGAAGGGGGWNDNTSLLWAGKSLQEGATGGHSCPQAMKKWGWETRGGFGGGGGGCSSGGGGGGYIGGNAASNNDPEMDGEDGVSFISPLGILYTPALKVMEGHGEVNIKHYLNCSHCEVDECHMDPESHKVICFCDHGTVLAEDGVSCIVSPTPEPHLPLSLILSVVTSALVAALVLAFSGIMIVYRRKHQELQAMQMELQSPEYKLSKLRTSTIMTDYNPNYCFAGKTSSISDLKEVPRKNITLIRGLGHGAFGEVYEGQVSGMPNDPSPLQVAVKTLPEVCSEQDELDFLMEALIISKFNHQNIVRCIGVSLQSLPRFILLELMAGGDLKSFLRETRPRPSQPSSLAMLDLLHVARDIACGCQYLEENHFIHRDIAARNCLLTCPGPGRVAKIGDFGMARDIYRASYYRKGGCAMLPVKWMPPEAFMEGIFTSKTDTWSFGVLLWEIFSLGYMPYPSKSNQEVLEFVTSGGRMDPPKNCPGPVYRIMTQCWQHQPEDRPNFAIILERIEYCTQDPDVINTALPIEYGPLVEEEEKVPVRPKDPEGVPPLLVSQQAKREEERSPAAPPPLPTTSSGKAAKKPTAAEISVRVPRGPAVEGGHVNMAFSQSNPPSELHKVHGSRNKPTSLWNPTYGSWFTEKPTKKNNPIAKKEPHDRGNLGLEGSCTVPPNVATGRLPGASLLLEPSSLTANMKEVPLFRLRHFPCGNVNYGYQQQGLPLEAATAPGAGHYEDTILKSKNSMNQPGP
T42 sequence (Q16288 32-839): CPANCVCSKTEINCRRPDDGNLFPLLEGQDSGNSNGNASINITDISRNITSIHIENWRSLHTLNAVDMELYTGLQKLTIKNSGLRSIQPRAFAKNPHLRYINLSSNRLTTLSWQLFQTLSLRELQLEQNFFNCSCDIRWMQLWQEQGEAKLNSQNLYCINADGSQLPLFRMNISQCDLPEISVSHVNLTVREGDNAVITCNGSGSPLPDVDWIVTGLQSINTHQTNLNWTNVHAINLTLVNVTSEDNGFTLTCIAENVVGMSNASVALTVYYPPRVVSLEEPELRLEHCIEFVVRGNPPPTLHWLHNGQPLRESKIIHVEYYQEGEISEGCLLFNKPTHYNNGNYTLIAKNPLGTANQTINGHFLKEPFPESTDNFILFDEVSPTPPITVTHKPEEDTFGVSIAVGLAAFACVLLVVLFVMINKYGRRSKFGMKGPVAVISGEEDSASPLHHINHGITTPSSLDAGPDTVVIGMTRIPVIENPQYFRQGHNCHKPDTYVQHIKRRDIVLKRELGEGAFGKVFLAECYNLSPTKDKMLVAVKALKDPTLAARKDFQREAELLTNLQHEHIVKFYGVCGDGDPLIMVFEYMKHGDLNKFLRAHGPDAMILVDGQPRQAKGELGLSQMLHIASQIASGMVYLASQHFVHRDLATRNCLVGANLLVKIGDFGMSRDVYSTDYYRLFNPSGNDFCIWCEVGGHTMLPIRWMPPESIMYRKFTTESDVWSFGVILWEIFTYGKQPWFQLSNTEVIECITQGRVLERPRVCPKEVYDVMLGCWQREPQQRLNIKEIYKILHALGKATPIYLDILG
T5 sequence (O14730 whole entry): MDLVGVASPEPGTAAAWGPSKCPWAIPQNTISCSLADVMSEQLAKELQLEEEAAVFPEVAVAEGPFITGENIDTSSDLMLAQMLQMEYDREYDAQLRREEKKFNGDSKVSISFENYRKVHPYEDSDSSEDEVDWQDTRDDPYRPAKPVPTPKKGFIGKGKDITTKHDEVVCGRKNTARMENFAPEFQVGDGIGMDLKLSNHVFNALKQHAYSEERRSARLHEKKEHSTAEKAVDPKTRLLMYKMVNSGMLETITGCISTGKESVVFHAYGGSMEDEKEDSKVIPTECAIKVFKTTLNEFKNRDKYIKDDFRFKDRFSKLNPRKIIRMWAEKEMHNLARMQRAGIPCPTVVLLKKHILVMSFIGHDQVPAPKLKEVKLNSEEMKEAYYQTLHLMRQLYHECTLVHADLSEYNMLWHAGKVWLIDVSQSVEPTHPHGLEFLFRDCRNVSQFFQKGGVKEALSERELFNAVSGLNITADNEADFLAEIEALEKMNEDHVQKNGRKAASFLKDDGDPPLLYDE
T23 sequence (P42338 whole entry): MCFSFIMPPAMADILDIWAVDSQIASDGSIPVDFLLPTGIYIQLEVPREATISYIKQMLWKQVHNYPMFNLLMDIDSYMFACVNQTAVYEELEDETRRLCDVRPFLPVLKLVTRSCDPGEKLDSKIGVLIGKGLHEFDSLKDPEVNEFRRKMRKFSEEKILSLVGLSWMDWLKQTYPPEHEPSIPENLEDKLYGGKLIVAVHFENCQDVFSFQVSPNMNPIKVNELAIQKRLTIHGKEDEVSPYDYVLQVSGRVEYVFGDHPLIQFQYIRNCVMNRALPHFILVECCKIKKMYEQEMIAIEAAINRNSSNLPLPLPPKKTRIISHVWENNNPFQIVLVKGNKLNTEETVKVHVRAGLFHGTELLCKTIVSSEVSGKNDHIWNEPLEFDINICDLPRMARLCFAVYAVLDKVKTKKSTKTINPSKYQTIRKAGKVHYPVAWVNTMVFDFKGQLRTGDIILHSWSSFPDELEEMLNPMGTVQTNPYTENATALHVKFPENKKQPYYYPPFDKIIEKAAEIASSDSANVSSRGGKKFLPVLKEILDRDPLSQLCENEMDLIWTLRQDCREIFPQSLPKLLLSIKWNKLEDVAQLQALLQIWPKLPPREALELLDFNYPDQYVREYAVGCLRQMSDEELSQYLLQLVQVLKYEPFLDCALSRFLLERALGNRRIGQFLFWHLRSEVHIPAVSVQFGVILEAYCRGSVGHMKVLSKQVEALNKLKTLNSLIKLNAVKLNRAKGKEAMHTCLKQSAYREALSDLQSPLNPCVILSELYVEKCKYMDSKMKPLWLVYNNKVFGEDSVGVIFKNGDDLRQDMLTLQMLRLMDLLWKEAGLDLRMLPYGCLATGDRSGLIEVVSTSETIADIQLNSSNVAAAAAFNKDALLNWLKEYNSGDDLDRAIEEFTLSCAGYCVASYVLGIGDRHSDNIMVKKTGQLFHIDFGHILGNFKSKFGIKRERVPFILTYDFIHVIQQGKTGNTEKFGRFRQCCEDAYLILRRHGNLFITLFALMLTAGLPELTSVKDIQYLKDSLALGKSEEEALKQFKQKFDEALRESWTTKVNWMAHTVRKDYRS
T9 sequence (Q9UPE1 whole entry): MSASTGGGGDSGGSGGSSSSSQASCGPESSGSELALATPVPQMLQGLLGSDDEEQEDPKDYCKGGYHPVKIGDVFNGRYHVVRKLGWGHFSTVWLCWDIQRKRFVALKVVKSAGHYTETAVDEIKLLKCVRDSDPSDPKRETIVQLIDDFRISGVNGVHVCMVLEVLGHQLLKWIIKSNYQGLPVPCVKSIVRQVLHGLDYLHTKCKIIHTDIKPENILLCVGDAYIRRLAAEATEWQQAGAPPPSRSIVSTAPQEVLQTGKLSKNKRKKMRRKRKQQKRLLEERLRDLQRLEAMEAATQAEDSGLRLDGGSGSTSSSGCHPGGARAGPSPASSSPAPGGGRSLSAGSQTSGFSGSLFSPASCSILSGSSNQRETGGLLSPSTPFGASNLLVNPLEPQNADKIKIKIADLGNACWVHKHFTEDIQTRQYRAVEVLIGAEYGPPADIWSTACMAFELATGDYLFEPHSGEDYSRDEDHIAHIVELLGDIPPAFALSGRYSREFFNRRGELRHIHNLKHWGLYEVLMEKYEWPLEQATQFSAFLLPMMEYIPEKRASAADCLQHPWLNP

CCN(C(=O)CO)[C@H]1CN(/C(=N\C#N)Nc2cccc(OC(F)F)c2)N=C1c1ccc(Cl)c(Cl)c1 [(S)-4]
remaining binding at 1 µM (FRK): 77% | remaining binding at 1 µM [1]: 92% | remaining binding at 1 µM (PIK3CA(H1047Y)): 92% | remaining binding at 1 µM (PRKCI): 63% | remaining binding at 1 µM (RIOK3): 46% | remaining binding at 1 µM [2]: 77% | remaining binding at 1 µM [3]: 87% | remaining binding at 1 µM (NIM1): 100% | remaining binding at 1 µM (SRPK3): 79% | remaining binding at 1 µM (PRKCD): 89% | remaining binding at 1 µM (JNK3): 100% | remaining binding at 1 µM (PFCDPK1(P.falciparum)): 76% | remaining binding at 1 µM (EIF2AK1): 100% | remaining binding at 1 µM (EPHA2): 84% | remaining binding at 1 µM (PFTK1): 84% | remaining binding at 1 µM (RIPK1): 76% | remaining binding at 1 µM (ERN1): 93% | remaining activity at 1 µM (PKNB(M.tuberculosis)): 88% | remaining binding at 1 µM (EPHA5): 100% | remaining binding at 1 µM (RET): 91% | remaining binding at 1 µM (TSSK1B): 79% | remaining binding at 1 µM (STK39): 77% | remaining binding at 1 µM (PIK3CB): 100% | remaining binding at 1 µM (PIK3CA(E545A)): 53% | remaining binding at 1 µM (NEK11): 77% | remaining binding at 1 µM (EPHA1): 86% | remaining binding at 1 µM (CSF1R-autoinhibited): 47% | remaining binding at 1 µM (MARK1): 71% | remaining binding at 1 µM (ULK2): 100% | remaining binding at 1 µM (NEK1): 93% | remaining binding at 1 µM [4]: 100% | remaining binding at 1 µM (TAOK3): 92% | remaining binding at 1 µM (SGK3): 98% | remaining binding at 1 µM (TYRO3): 100% | remaining binding at 1 µM (TRPM6): 80% | remaining binding at 1 µM (ALK): 93% | remaining binding at 1 µM (p38-gamma): 70% | remaining binding at 1 µM (GRK1): 93% | remaining binding at 1 µM (CTK): 100% | remaining binding at 1 µM (CDKL1): 76% | remaining binding at 1 µM [5]: 91% | remaining binding at 1 µM (TRKC): 55% | remaining binding at 1 µM (CSNK1A1L): 94%
